# Assay results from patent publication US7893082B2, “Substituted tetrahydroquinolines” (Merck Patent GmbH, priority 2005, dated 2011).
# Tested on: cells
# Test: cell cycle effect (appended experiments)
# Format: cell-based
# Settings: G2/M cell cycle
smiles,measurement,value
N=C(N)c1ccc(OCCCCCOc2ccc(C(=N)N)cc2)cc1 [pentamidine],effect on cell cycle,maintain cells in the G2/M cell cycle
